Laboratory results from patent US4594348A, “Use of some 2-[2-[4-phenyl-1-piperazinyl]ethyl]-1H-naphth-[1,2-D]imidazole derivatives and their pharmaceutically acceptable salts in the treatment of cardiovascular diseases” (Gruppo Lepetit S.p.A., priority 1984, dated 1986).

System: conscious renal hypertensive dogs
Assay: Systolic blood pressure in conscious renal hypertensive dogs (oral, Goldblatt's method)
Assay type: in vivo, dog (mongrel)
Conditions: Table I, renal hypertensive dogs, oral
Experimental: The experiments herein described which use renal hypertensive dogs are conducted essentially as described in the above cited text.
More particularly, in the experiments with conscious renal hypertensive dogs, mongrel dogs with two clips on the renal arteries were used according to the Goldblatt's method. The compounds were administered by oral route as powder in gelatine capsules. Systolic blood pressure (SBP) was registered at the tail (indirect method).
^a S.B.P. = Systolic blood pressure. It is determined after oral
administration where three animals were employed for each dose. It is
expressed in mmHg as mean value ± SE.
^b % Δ = % variation of the S.B.P. over the basal value (time
0) at the indicated time after administration.

Row | SMILES | % systolic pressure variation (10 mg/kg) [%] | % systolic pressure variation (20 mg/kg) [%] | % systolic pressure variation (2 mg/kg) [%] | % systolic pressure variation (5 mg/kg) [%]
1 | Cn1c(CCN2CCN(c3ccc(Cl)cc3)CC2)nc2ccc3ccccc3c21 [Compound 4, 2-[2-[4-(4-chlorophenyl)-1-piperazinyl]ethyl]-1-methyl-1H-naphth[1,2-d]imidazole] | -29 | -31 | – | –
2 | COc1cccc(N2CCN(CCc3nc4ccc5ccccc5c4n3C(C)C)CC2)c1 [Compound 5, 2-[2-[4-(3-methoxyphenyl)-1-piperazinyl]ethyl]-1-(1-methylethyl)-1H-naphth[1,2-d]imidazole] | – | -20 | – | –
3 | Cn1c(CCN2CCN(c3cccc(C(F)(F)F)c3)CC2)nc2ccc3ccccc3c21 [Compound 6, 2-[2-[4-(3-trifluoromethylphenyl)-1-piperazinyl]ethyl]-1-methyl-1H-naphth[1,2-d]imidazole] | – | -39 | – | –
4 | CC(C)n1c(CCN2CCN(c3ccc(Cl)cc3)CC2)nc2ccc3ccccc3c21 [Compound 7, 2-[2-[4-(4-chlorophenyl)-1-piperazinyl]ethyl]-1-(1-methylethyl)-1H-naphth[1,2-d]imidazole] | – | – | -14 | -35
